Laboratory results reported in paper PMC12389735, “Polyoxypregnane Aryl Esters Prepared from Metaplexis japonica (Thunb.) Makino and Their Role in Reversing Multidrug Resistance in HepG2/Dox Cells” (Pharmaceuticals, 2025).

Tests used:
[1] = Bidirectional transport assay on Caco-2 cell monolayers; details: human; for Papp B→A at 2 h: Caco-2, pH 7.4; for Papp A→B at 2 h: Caco-2, pH 7.4, A→B Transport Papp, pH 7.40; for Papp A→B at 2 h / recovery at 2 h: compound 1, 1a 2 μM, digoxin 10 μM; for Papp A→B at 2 h, 2 μM: Caco-2, pH 7.4, Apparent permeability coefficient (Papp) from AP to BL
HepG2/Dox cells [2] = assay: CCK-8 cell viability / reversal of P-gp-mediated MDR in HepG2/Dox cells; format: cell-based, Human; details: for Cytotoxicity to HepG2/Dox cells (viability): compound alone at 5 or 10 μM; for Cytotoxicity to HepG2/Dox cells (viability) / IC50: 48 h; for Reversal of resistance of HepG2/Dox cells to paclitaxel and vinblastine: non-cytotoxic concentrations (10 μM); for IC50: Homo sapiens, HepG2/Dox, anticancer drug alone, CCK-8, read-out: IC50 ± SD HepG2/Dox; for Fsen (fold increase in sensitivity): drug alone (reference); for Fres (fold of resistance): drug alone, IC50 in HepG2/Dox / IC50 in HepG2
HepG2/Dox cells [3] = assay: Annexin V/PI apoptosis by flow cytometry in HepG2/Dox cells; format: cell-based, Human; details: 24 h; for Apoptosis rates of HepG2/Dox cells: 10 μM in combination with 500 nM paclitaxel, vs PTX alone
Protocol: Cells were then incubated for another 24 h in 2 mL fresh medium containing the test samples. The medium and cells (digested by EDTA-free trypsin) were collected and centrifuged (1000 rpm, 5 min). The cells were then suspended in PBS and stained using the Annexin V/PI kit by following the procedures provided with the kit, and the apoptosis rate of cells with different treatments was analyzed using flow cytometry.

caspase 8 = assay: Western blotting of caspase 8 expression in HepG2/Dox cells; format: cell-based, Human
Protocol: (§1) In 100 mm culture dishes, 1 × 10^6 cells in 10 mL medium were seeded and incubated for 24 h, and then incubated with the test sample in 10 mL fresh medium for another 24 h. Total proteins were extracted using RIPA cell lysis buffer containing PMSF while protein content was determined using the BCA kit. An equal amount of the protein sample was subjected to SDS-PAGE for separation and transferred to PVDF membranes. The membranes were blocked in 5% defat milk at RT for 1 h, and then incubated with the primary antibody of the protein of interest (P-gp, caspase 8 or caspase 9) or GAPDH (internal standard) at 4 °C overnight, and then with the secondary antibody at RT for 1 h. Protein bands were detected under the chemiluminescence scanner, while Image J was employed to analyze the gray value of the protein bands.

caspase 9 = assay: Western blotting of caspase 9 expression in HepG2/Dox cells; format: cell-based, Human
Protocol: as §1

P-gp [4] = assay: Western blotting of P-gp expression in HepG2/Dox cells; format: cell-based, Human; details: alone or in combination with paclitaxel
Protocol: as §1

P-gp [5] = target: T1, P-gp (Homo sapiens, UniProt P08183); assay: Rhodamine 123 efflux assay for P-gp function in HepG2/Dox cells; format: cell-based; details: 10 μM, 5 μM Rh-123, 40 min; vs Rh-123 alone
T1 construct: Doxorubicin-induced P-gp overexpression HepG2/Dox subline was a gift from Prof; Fong; endogenous in cells; host or cells: HepG2/Dox (doxorubicin-induced P-gp-overexpressing subline of HepG2)
T1 sequence (P08183 whole entry): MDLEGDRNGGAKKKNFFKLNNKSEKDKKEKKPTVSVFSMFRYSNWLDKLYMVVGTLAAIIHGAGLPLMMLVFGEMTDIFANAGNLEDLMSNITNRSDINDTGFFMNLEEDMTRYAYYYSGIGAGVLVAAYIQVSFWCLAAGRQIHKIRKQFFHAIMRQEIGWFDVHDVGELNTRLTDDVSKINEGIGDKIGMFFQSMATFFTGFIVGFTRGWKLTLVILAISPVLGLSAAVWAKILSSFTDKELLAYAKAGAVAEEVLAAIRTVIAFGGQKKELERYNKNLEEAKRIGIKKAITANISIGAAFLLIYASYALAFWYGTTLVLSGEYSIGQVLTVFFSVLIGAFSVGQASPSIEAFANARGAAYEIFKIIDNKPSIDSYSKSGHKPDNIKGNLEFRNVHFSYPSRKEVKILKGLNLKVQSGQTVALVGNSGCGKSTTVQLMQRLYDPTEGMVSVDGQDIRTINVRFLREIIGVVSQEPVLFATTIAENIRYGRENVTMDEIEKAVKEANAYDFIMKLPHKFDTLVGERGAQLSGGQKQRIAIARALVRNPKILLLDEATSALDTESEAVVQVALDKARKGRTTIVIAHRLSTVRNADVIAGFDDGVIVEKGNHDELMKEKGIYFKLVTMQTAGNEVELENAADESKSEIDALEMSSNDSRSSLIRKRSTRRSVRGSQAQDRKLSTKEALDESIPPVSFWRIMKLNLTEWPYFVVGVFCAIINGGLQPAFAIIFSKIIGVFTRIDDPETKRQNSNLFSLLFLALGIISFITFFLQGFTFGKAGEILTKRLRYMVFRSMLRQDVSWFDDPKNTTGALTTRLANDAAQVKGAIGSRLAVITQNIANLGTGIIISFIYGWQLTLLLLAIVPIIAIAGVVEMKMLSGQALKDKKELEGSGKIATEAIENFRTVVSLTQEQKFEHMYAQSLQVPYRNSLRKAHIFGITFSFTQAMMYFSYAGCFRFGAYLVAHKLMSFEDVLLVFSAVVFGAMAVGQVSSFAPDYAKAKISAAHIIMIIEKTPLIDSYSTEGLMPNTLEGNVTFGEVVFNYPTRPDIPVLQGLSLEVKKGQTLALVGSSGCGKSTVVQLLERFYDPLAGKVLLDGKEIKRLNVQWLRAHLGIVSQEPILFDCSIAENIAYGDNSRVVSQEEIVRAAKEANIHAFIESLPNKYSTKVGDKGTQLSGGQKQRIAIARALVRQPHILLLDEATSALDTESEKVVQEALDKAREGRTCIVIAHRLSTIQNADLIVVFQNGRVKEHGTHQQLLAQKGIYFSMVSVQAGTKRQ
Protocol: After removal of the medium via centrifugation, the cells were washed with ice-cold PBS twice, resuspended in 300 μL ice-cold PBS, and transferred into flow cytometer tubes. Cellular fluorescence intensity was analyzed immediately using flow cytometry.

Human ABCB1 = target: T2, Human ABCB1 (Homo sapiens, UniProt P08183); assay: Surface plasmon resonance binding to full-length ABCB1 (Biacore); details: SPR; for Kd: CM5 chip, read-out: KD (equilibrium dissociation constant)
T2 construct: Flag; purchased MedChemExpress HY-P703175; host or cells: HEK293
T2 sequence (P08183 whole entry): as above
Protocol: The human recombinant ABCB1 full-length protein (HEK293, Flag) (MedChemExpress, Monmouth Junction, NJ, USA; #HY-P703175) was coupled onto a CM5 sensor chip (Cytiva, Marlborough, MA, USA; #BR-1005-30) via carboxyl groups on the dextran. After incubation, a series of concentrations of compound 1 or 1a flowed through the protein–CM5 system. Binding was tested and analyzed using a Biacore K8 instrument (GE Healthcare, Chicago, IL, USA) and Biacore Insight evaluation software (https://www.cytivalifesciences.com/en/us, accessed on 5 August 2025) (Cytiva, Marlborough, MA, USA).

Caco-2 cell monolayers = assay: Bidirectional transport assay on Caco-2 cell monolayers; details: from ER values of less than 2
[6] = Caco-2, pH 7.4, A→B Transport Solution Recovery %
[7] = Caco-2, pH 7.4, B→A Transport Solution Recovery %
[8] = 10 μM combined with paclitaxel 0.5 μM
[9] = alone: paclitaxel 0.5 μM, compound 1 or 1a 10 μM

C[C@H]1O[C@@H](O[C@H]2[C@@H](O)C[C@H](O[C@H]3[C@@H](O)C[C@H](O[C@H]4CC[C@@]5(C)[C@H](CC[C@@H]6[C@@H]5C[C@@H](O)[C@]5(C)[C@@H](C7=CC(=O)OC7)CC[C@]65O)C4)O[C@@H]3C)O[C@@H]2C)C[C@H](O)[C@@H]1O [Digoxin, reference compound]
Papp B→A at 2 h [1]: 22.3 ± 1.02 ×10⁻⁶ cm/s
Papp A→B at 2 h [1]: 0.12 ± 0.02 ×10⁻⁶ cm/s
recovery at 2 h [1, 6]: 97.9 ± 8.1%
recovery at 2 h [1, 7]: 94.4 ± 1.9%

COc1ccc(CCN(C)CCCC(C#N)(c2ccc(OC)c(OC)c2)C(C)C)cc1OC (stereo not drawn) [VRP, Verapamil, reference compound]
Fres to doxorubicin (HepG2/Dox cells [2]; doxorubicin + modulator 10 µM): 1.1
Fres to paclitaxel (HepG2/Dox cells [2]; paclitaxel + modulator 10 µM): 1.3
Fres to vinblastine (HepG2/Dox cells [2]; vinblastine + modulator 10 µM): 2.1
Apoptosis rates of HepG2/Dox cells (HepG2/Dox cells [3]): significantly increased

CC(O)C1(O)CCC2(O)C3CCC4CC(OC(=O)c5cccnc5)CCC4(C)C3CC(OC(=O)C=Cc3ccccc3)C12C [Compound 1a, 3β,12β,14β,17β,20(S)-pentahydroxy-5α-pregnan-3β-O-nicotinate-12β-O-(E)-cinnamate]
Cytotoxicity to HepG2/Dox cells (viability) (HepG2/Dox cells [2]): non-cytotoxic
Fres to doxorubicin (HepG2/Dox cells [2]; doxorubicin + modulator 5 µM): 1.9
Fsen to doxorubicin (HepG2/Dox cells [2]; doxorubicin + modulator 5 µM): 18.8
Fres to doxorubicin (HepG2/Dox cells [2]; doxorubicin + modulator 10 µM): 4.1
Fsen to doxorubicin (reversal fold) (HepG2/Dox cells [2]; doxorubicin + modulator 10 µM): 18.8
Fsen to doxorubicin (reversal fold) (HepG2/Dox cells [2]; doxorubicin + modulator 10 µM, listed as compound 1a): 8.6
Reversal of resistance of HepG2/Dox cells to paclitaxel and vinblastine (HepG2/Dox cells [2]): completely reversed
Fres to paclitaxel (HepG2/Dox cells [2]; paclitaxel + modulator 5 µM): 0.8
Fsen to paclitaxel (HepG2/Dox cells [2]; paclitaxel + modulator 5 µM): 155.0
Fres to paclitaxel (HepG2/Dox cells [2]; paclitaxel + modulator 10 µM): 0.4
Fsen to paclitaxel (reversal fold) (HepG2/Dox cells [2]; paclitaxel + modulator 10 µM): 335.8
Fres to vinblastine (HepG2/Dox cells [2]; vinblastine + modulator 5 µM): 1.8
Fsen to vinblastine (HepG2/Dox cells [2]; vinblastine + modulator 5 µM): 79.3
Fres to vinblastine (HepG2/Dox cells [2]; vinblastine + modulator 10 µM): 1.0
Fsen to vinblastine (reversal fold) (HepG2/Dox cells [2]; vinblastine + modulator 10 µM): 140
Apoptosis rates of HepG2/Dox cells (HepG2/Dox cells [3]): significantly increased
Expression of caspase 8 (caspase 8; [8]): did not change
Expression of caspase 8 (caspase 8; [9]): did not change
Expression of caspase 9 (caspase 9; [8]): significantly upregulated
Expression of caspase 9 (caspase 9; [9]): did not change
Expression level of cellular P-gp (P-gp [4]): did not influence
Fluorescence intensity of Rh-123 in cells (inhibited efflux) (P-gp [5]): significantly increased
Ka (association rate constant) (Human ABCB1): 41600 M⁻¹ s⁻¹
Kd (dissociation rate constant) (Human ABCB1): 0.155 s⁻¹
Kd (Human ABCB1): 3.72 µM
Ka (association rate constant) (Human ABCB1; listed as compound 1a): > 10^4 M^−1s^−1
koff (Human ABCB1; read-out: Kd (dissociation rate constant)): > 0.1 s⁻¹
Papp B→A at 2 h [1]: 0.24 ± 0.02 ×10⁻⁶ cm/s
Papp A→B at 2 h, 2 μM [1]: 0.27 ×10⁻⁶ cm/s
Papp A→B at 2 h [1]: 0.27 ± 0.03 ×10⁻⁶ cm/s
recovery at 2 h [1, 6]: 5.3 ± 0.5%
recovery at 2 h [1, 7]: 12.2 ± 0.7%
P-gp substrate status (Caco-2 cell monolayers): not P-gp substrates

CC(=O)O[C@H]1C(=O)[C@@]2(C)[C@H]([C@H](OC(=O)c3ccccc3)[C@]3(O)C[C@H](OC(=O)[C@H](O)[C@@H](NC(=O)c4ccccc4)c4ccccc4)C(C)=C1C3(C)C)[C@]1(OC(C)=O)CO[C@@H]1C[C@@H]2O [Paclitaxel, reference compound]
IC50 (HepG2/Dox cells [2]): 4.03 ± 0.06 µM
Cell apoptosis in HepG2/Dox cells (HepG2/Dox cells [3]; 500 nM alone): did not induce cell apoptosis
Expression of caspase 8 (caspase 8; [9]): did not change
Expression of caspase 9 (caspase 9; [9]): did not change

COc1cccc2c1C(=O)c1c(O)c3c(c(O)c1C2=O)C[C@@](O)(C(=O)CO)C[C@@H]3O[C@H]1C[C@H](N)[C@H](O)[C@H](C)O1 [Doxorubicin, reference compound]
IC50 (HepG2/Dox cells [2]): 6.03 ± 1.15 µM
Fsen (fold increase in sensitivity) (HepG2/Dox cells [2]): 1
Fres (fold of resistance) (HepG2/Dox cells [2]): 35.5

CC(O)C1(O)CCC2(O)C3CCC4CC(O)CCC4(C)C3CC(OC(=O)C=Cc3ccccc3)C12C [Compound 1, 3β,12β,14β,17β,20(S)-pentahydroxy-5α-pregnan-12β-O-(E)-cinnamate]
Cytotoxicity to HepG2/Dox cells (viability) (HepG2/Dox cells [2]): non-cytotoxic
Fres to doxorubicin (HepG2/Dox cells [2]; doxorubicin + modulator 5 µM): 13.7
Fsen to doxorubicin (HepG2/Dox cells [2]; doxorubicin + modulator 5 µM): 2.6
Fres to doxorubicin (HepG2/Dox cells [2]; doxorubicin + modulator 10 µM): 5.0
Fsen to doxorubicin (reversal fold) (HepG2/Dox cells [2]; doxorubicin + modulator 10 µM): 7.1
Reversal of resistance of HepG2/Dox cells to paclitaxel and vinblastine (HepG2/Dox cells [2]): completely reversed
Fres to paclitaxel (HepG2/Dox cells [2]; paclitaxel + modulator 5 µM): 3.9
Fsen to paclitaxel (HepG2/Dox cells [2]; paclitaxel + modulator 5 µM): 33.6
Fres to paclitaxel (HepG2/Dox cells [2]; paclitaxel + modulator 10 µM): 1.1
Fsen to paclitaxel (reversal fold) (HepG2/Dox cells [2]; paclitaxel + modulator 10 µM): 118.5
Fres to vinblastine (HepG2/Dox cells [2]; vinblastine + modulator 5 µM): 1.5
Fsen to vinblastine (HepG2/Dox cells [2]; vinblastine + modulator 5 µM): 91.5
Fres to vinblastine (HepG2/Dox cells [2]; vinblastine + modulator 10 µM): 0.7
Fsen to vinblastine (reversal fold) (HepG2/Dox cells [2]; vinblastine + modulator 10 µM): 198.3
Apoptosis rates of HepG2/Dox cells (HepG2/Dox cells [3]): significantly increased
Expression of caspase 8 (caspase 8; [8]): did not change
Expression of caspase 8 (caspase 8; [9]): did not change
Expression of caspase 9 (caspase 9; [8]): significantly upregulated
Expression of caspase 9 (caspase 9; [9]): did not change
Expression level of cellular P-gp (P-gp [4]): did not influence
Fluorescence intensity of Rh-123 in cells (inhibited efflux) (P-gp [5]): significantly increased
Ka (association rate constant) (Human ABCB1): 65800 M⁻¹ s⁻¹
Kd (dissociation rate constant) (Human ABCB1): 0.364 s⁻¹
Kd (Human ABCB1): 5.53 µM
Ka (association rate constant) (Human ABCB1; listed as compound 1): > 10^4 M^−1s^−1
Kd (dissociation rate constant) (Human ABCB1; listed as compound 1): > 10^−1 s^−1
Papp B→A at 2 h [1]: 7.71 ± 0.61 ×10⁻⁶ cm/s
Papp A→B at 2 h, 2 μM [1]: 9.28 ×10⁻⁶ cm/s
Papp A→B at 2 h [1]: 9.28 ± 0.88 ×10⁻⁶ cm/s
recovery at 2 h [1, 6]: 44.6 ± 2.3%
recovery at 2 h [1, 7]: 50.4 ± 1.7%
P-gp substrate status (Caco-2 cell monolayers): not P-gp substrates

CC[C@]1(O)C[C@@H]2CN(CCc3c([nH]c4ccccc34)[C@@](C(=O)OC)(c3cc4c(cc3OC)N(C)[C@H]3[C@@](O)(C(=O)OC)[C@H](OC(C)=O)[C@]5(CC)C=CCN6CC[C@]43[C@@H]65)C2)C1 [Vinblastine, reference compound]
IC50 (HepG2/Dox cells [2]): 2.38 ± 0.62 µM
Fsen (fold increase in sensitivity) (HepG2/Dox cells [2]): 1
Fres (fold of resistance) (HepG2/Dox cells [2]): 140.0
Fres (fold of resistance) (HepG2/Dox cells [2]; listed as vinblastine): 140
